The results in this text go back to patent publication US20170296573A1, “ANTITUMOR DRUG COMPRISING BETA-CYCLODEXTRIN” (JRC G. K., priority 2014, published 2017).

One assay deals with UOK121 cells. The assay is described as follows: Example 10 Test B: cyclodextrin with 2DG-ABT in UOK121 cells, live cells by trypan-blue dye exclusion. The following applies: 10 mM 2DG, 10 mM cyclodextrin, 0.3 μM ABT-263, 25 mM glucose. Type of assay: cell-based, human. As to the method:
(§1) Dead and live cells were counted by trypan-blue dye exclusion methods. These experiments were done in triplicate, and the error bars indicate the standard deviation.
(Test A) UOK121 cells were incubated in 10% serum medium with 5 mM or 10 mM α-, β-, and γ-cyclodextrins for 45 minutes. The same medium without any cyclodextrin was also incubated as a control. The cells were harvested and analyzed by Western Blots for the phosphorylation of AKT and ERK1/2 as an indicator of the AKT and ERK1/2 activations. (Test B) 10 mM 2DG was added to a medium of U0K121 cells in the presence of 25 mM glucose, and the medium was incubated for 1.5 hours. To the medium was added 10 mM α-, β-, or γ-cyclodextrin, and the medium was incubated for 30 minutes. Then, 0.3 μM ABT-263 was added thereto, and the medium was further incubated for 2 hours. Separately, a control that includes only α-, β-, or γ-cyclodextrin without 2DG or ABT-263, and another control that includes neither α-, β-, or γ-cyclodextrin, nor 2DG or ABT-263 were prepared. 2.5 hours after adding each cyclodextrin (i.e., 2 hours after adding ABT-263), all the cells were washed with the medium twice, and next day the live cells were counted by trypan-blue dye exclusion assay.

In assay [1] the test system is AKT. As to the kind of experiment: Example 10 Test A: AKT activation in UOK121 cells with α-, β-, γ-cyclodextrins. To be noted: 10% serum, 5 mM or 10 mM cyclodextrin, 45 minutes. Format: cell-based, human. As to the method: (§2) We ran 20 μg of proteins per lane for western blots. We ran 8, 10, 12.5 and 15% gels depending on the size of proteins being detected by western blots. When there are two proteins having a similar size, gel is flowed in each protein to make western blot analysis about each protein. The immunoprecipitation was undergone by adding 200 μg of protein from solubilized cells and Protein G Sepharose or Protein A Sepharose (Sigma P3296/P9242) pre-conjugated with immunoprecipitation antibody to a buffer for immunoprecipitation, and slowly rotating the tube containing the sample buffer at 4° C. overnight. The buffer for immunoprecipitation comprises 20 mM Tris Ph 7.5, 1% Triton-X100, 150 mM NaCl, phosphatase inhibitor cocktail (Cell Signaling (#58709S)), and 10% glycerol. […] The precipitate in the solution was separated with 15% SDS-PAGE or 12.5% SDS-PAGE and analyzed by Western blotting.
(Test A) UOK121 cells were incubated in 10% serum medium with 5 mM or 10 mM α-, β-, and γ-cyclodextrins for 45 minutes. […] The cells were harvested and analyzed by Western Blots for the phosphorylation of AKT and ERK1/2 as an indicator of the AKT and ERK1/2 activations. […] 2.5 hours after adding each cyclodextrin (i.e., 2 hours after adding ABT-263), all the cells were washed with the medium twice, and next day the live cells were counted by trypan-blue dye exclusion assay.

The test system of assay [2] is AKT. As to the kind of experiment: Example 1 Test A: IGF1-stimulated AKT phosphorylation in HeLa cells, Western blot. Format: cell-based. The following applies: serum-free, 7 mM bCD (MBCD) 30 minutes, 20 ng/mL IGF1 20 minutes. As to the method: as §2
(§3) (Test A) HeLa cells were incubated in serum-free medium with 0, 1.75, 3.5, and 7.0 mM bCD for 30 minutes, which were prepared in duplicate in each bCD concentration. […] The cells were harvested and analyzed by Western Blots for phosphor-serine AKT and AKT, in which the phosphorylation of AKT was used as an indicator of the AKT activation. […] The cells were harvested and analyzed by Western Blots about EGFR, IGF1R, ERK, PI3K, and AKT, as well as each phosphorylation thereof. […]
A general note: In western blotting, separated proteins are transferred to a membrane and probed.

Assay [3] deals with AKT. The assay is described as follows: Example 3 Method B: AKT phosphorylation in RCC4 cells in 10% serum. To be noted: 10 mM 2DG 2 hours, 10 mM bCD (MBCD) last 30 minutes. Type of assay: cell-based. The protocol: (§4) We ran 20 μg of proteins per lane for western blots. We ran 8, 10, 12.5 and 15% gels depending on the size of proteins being detected by western blots. When there are two proteins having a similar size, gel is flowed in each protein to make western blot analysis about each protein. The immunoprecipitation was undergone by adding 200 μg of protein from solubilized cells and Protein G Sepharose or Protein A Sepharose (Sigma P3296/P9242) pre-conjugated with immunoprecipitation antibody to a buffer for immunoprecipitation, and slowly rotating the tube containing the sample buffer at 4° C. overnight. The buffer for immunoprecipitation comprises 20 mM Tris Ph 7.5, 1% Triton-X100, 150 mM NaCl, phosphatase inhibitor cocktail (Cell Signaling (#58709S)), and 10% glycerol. Next morning, the content in the tube was centrifuged. The precipitate was washed with the same buffer twice and dissolved in SDS buffer. The precipitate in the solution was separated with 15% SDS-PAGE or 12.5% SDS-PAGE and analyzed by Western blotting.
RCC4 cells were incubated with or without 10 mM 2DG for 2 hours in the presence of 10% serum. In the last 30 minutes, each one subset of cells treated/untreated with 2DG was exposed to 10 mM bCD before the cells were harvested and analyzed.

In a further assay the test system is RTK-Ras-ERK signals. As to the kind of experiment: Example 1 Tests B and C: ERK signals in EGF or IGF1 challenged HeLa cells, Western blot. Type of assay: cell-based. The following applies: 10 mM bCD (MBCD) 30 minutes, then EGF or IGF1. As to the method: as §2, §3
In assay [4] the test system is AKT. As to the kind of experiment: Example 3 Method C: recovery of AKT activities in HeLa cells after bCD washout. To be noted: 10 mM bCD (MBCD) one hour, washed, 10% serum, up to 120 minutes. Format: cell-based. As to the method: as §4
HeLa cells were incubated with 10 mM bCD for one hour in the presence of 10% serum before the cells were washed and re-incubated in medium containing 10% serum for the indicated period (˜120 minutes).

Assay [5] concerns PI3K-AKT pro-survival signals. The assay is described as follows: Example 1 Tests B and C: EGF or IGF1 challenge of HeLa cells, Western blot for EGFR, IGF1R, PI3K, AKT phosphorylation. Format: cell-based. To be noted: 10 mM bCD (MBCD) 30 minutes, then 100 ng/mL EGF or 10 ng/mL IGF1. As to the method: as §2, §3
For assay [6], the system named is AKT. The assay is described as follows: Example 6 Test A: AKT phosphorylation, HeLa cervical cancer cells. Type of assay: cell-based. The following applies: 10 mM bCD (MBCD) 30 minutes, 25 mM glucose. As to the method:
as §2, with “overnight.” for “overnight. The buffer for immunoprecipitation comprises 20 mM Tris Ph 7.5, 1% Triton-X100, 150 mM NaCl, phosphatase inhibitor cocktail (Cell Signaling (#58709S)), and 10% glycerol.”
(§5) (Test A) HeLa cervical cancer cells, UOK121 renal cancer cells, Panc-1 pancreatic cancer cells, and A431 squamous cancer cells were untreated, pre-treated with 10 mM 2DG, co-incubated with 10 mM bCD for the last 30 minutes, or both-treated with the 10 mM 2DG and the 10 mM bCD, in the presence of 25 mM glucose contained in the media. Each cell was harvested and analyzed by Western Blotting. (Test B) The same samples of A431 cell lysates in Test A were analyzed for EGFR activation, ERK1/2 activation, and PI3K activation. […] The cells were harvested and the live cells were counted by trypan-blue dye exclusion assay. […]

The next assay relates to EGFR, ERK1/2, and PI3K. The assay is described as follows: Example 6 Test B: EGFR, ERK1/2 and PI3K activation in A431 cells. Type of assay: cell-based. To be noted: bCD and/or 2DG, 10 mM each. The protocol:
as §2, with “overnight.” for “overnight. The buffer for immunoprecipitation comprises 20 mM Tris Ph 7.5, 1% Triton-X100, 150 mM NaCl, phosphatase inhibitor cocktail (Cell Signaling (#58709S)), and 10% glycerol.”
as §5

The test system of assay [7] is AKT. As to the kind of experiment: Example 6 Test A: AKT phosphorylation, Panc-1 pancreatic cancer cells. Type of assay: cell-based. To be noted: Panc-1 cells, 10 mM bCD (MBCD) 30 minutes, 25 mM glucose. The protocol:
as §2, with “overnight.” for “overnight. The buffer for immunoprecipitation comprises 20 mM Tris Ph 7.5, 1% Triton-X100, 150 mM NaCl, phosphatase inhibitor cocktail (Cell Signaling (#58709S)), and 10% glycerol.”
as §5

Assay [8] relates to AKT. As to the kind of experiment: Example 6 Test A: AKT phosphorylation, UOK121 renal cancer cells. Type of assay: cell-based, human. The following applies: 10 mM bCD (MBCD) 30 minutes, 25 mM glucose. The protocol:
as §2, with “overnight.” for “overnight. The buffer for immunoprecipitation comprises 20 mM Tris Ph 7.5, 1% Triton-X100, 150 mM NaCl, phosphatase inhibitor cocktail (Cell Signaling (#58709S)), and 10% glycerol.”
as §5

Assay [9] concerns IGF1-induced hypoglycemia. The assay is described as follows: Example 4: IGF1-induced hypoglycemia in mice. Type of assay: in vivo. To be noted: five-hour starved mice, 40 μg bCD (HPBCD) 30 minutes before 100 ng IGF1, glucose after thirty minutes. The protocol: Five-hour starved mice were either pre-treated with 40 μg bCD for 30 minutes, or without. They were then injected with 100 ng IGF1. After thirty minutes, the blood glucose levels were measured by drawing blood from each mouse tail. The experiments were performed in triplicate samples and the error bars indicate the standard deviation. The mice were all about 20 g.

Assay [10] relates to AKT. As to the kind of experiment: Example 6 Test A: AKT phosphorylation, A431 squamous cancer cells. Type of assay: cell-based. The following applies: 10 mM bCD (MBCD) 30 minutes, 25 mM glucose. As to the method: as §2, with “overnight.” for “overnight. The buffer for immunoprecipitation comprises 20 mM Tris Ph 7.5, 1% Triton-X100, 150 mM NaCl, phosphatase inhibitor cocktail (Cell Signaling (#58709S)), and 10% glycerol.”
as §5

In another assay the test system is Panc-1 cells. The assay is described as follows: Example 9: 2DG-bCD-TRAIL in Panc-1 cells, live cells by trypan-blue dye exclusion. To be noted: TRAIL 10 ng/ml alone. Type of assay: cell-based. The protocol:
as §1
(A) Panc-1 cells were treated with the standard 2DG-bCD-TRAIL protocol (FIG. 3). The live cells were distinguished from the dead cells by trypan-blue dye exclusion assays, and the live cells were counted, and graphed. The experiments were performed in triplicate and the error bars represent the standard deviations. (B) Western blots of Panc-1 cells left untreated, treated with TRAIL, treated with 2DG-bCD combination, and treated with the combination of 2DG-bCD-TRAIL as depicted in FIG. 3. The cells were harvested at hour 6. The experiments were repeated three times with similar results.

Regarding `OC[C@H]1O[C@@H]2O[C@H]3[C@H](O)[C@@H](O)[C@@H](O[C@H]4[C@H](O)[C@@H](O)[C@@H](O[C@H]5[C@H](O)[C@@H](O)[C@@H](O[C@H]6[C@H](O)[C@@H](O)[C@@H](O[C@H]7[C@H](O)[C@@H](O)[C@@H](O[C@H]8[C@H](O)[C@@H](O)[C@@H](O[C@H]1[C@H](O)[C@H]2O)O[C@@H]8CO)O[C@@H]7CO)O[C@@H]6CO)O[C@@H]5CO)O[C@@H]4CO)O[C@@H]3CO` [β-cyclodextrin], the “enhancement of the combination effect of 2DG-ABT (live cells)” value in the assay on UOK121 cells was “clearly enhanced”. The “AKT activation (phosphorylation)” value with AKT [1] is recorded as “lowered”.

Consider `OC[C@H]1O[C@@H]2O[C@H]3[C@H](O)[C@@H](O)[C@@H](O[C@H]4[C@H](O)[C@@H](O)[C@@H](O[C@H]5[C@H](O)[C@@H](O)[C@@H](O[C@H]6[C@H](O)[C@@H](O)[C@@H](O[C@H]7[C@H](O)[C@@H](O)[C@@H](O[C@H]8[C@H](O)[C@@H](O)[C@@H](O[C@H]9[C@H](O)[C@@H](O)[C@@H](O[C@H]1[C@H](O)[C@H]2O)O[C@@H]9CO)O[C@@H]8CO)O[C@@H]7CO)O[C@@H]6CO)O[C@@H]5CO)O[C@@H]4CO)O[C@@H]3CO` [γ-cyclodextrin], for which, in the assay with UOK121 cells, the “enhancement of the combination effect of 2DG-ABT (live cells)” value is recorded as “little enhanced”.

Turning to methyl-β-cyclodextrin [bCD], in the assay on AKT [2], the “process that IGF1 generates signal to AKT (AKT phosphorylation)” value was “completely block”. For the same molecule, the “phosphorylation of AKT” value in the assay with AKT [3] was “almost totally absent”. Moreover, the Ras-ERK proliferation signals entry with RTK-Ras-ERK signals is on record as “intact”. Besides, the “AKT activities coming back after return to media without bCD” value in the assay on AKT [4] is “did not take long”. The AKT activations result in assay [5] is given as “considerably diminished”. In assay [5], the “activation of EGFR, IGF1R, and PI3K” value was “clearly activated”. Also, the AKT phosphorylation result in the assay on AKT [6], with AKT [7], with AKT [8] and in the assay with AKT [10] was “attenuated” each time. For the same molecule, in the assay with EGFR, ERK1/2, and PI3K, the “EGFR, ERK1/2, and PI3K activation” value was “all activated”. In addition, in [9], the “IGF1-induced hypoglycemia (blood glucose)” value was “clearly attenuated”.

B1: TRAIL: TNF-related apoptosis-inducing ligand (protein, UniProt P50591 1-281, looked up)
Tumor necrosis factor ligand …: MAMMEVQGGPSLGQTCVLIVIFTVLLQSLCVAVTYVYFTNELKQMQDKYSKSGIACFLKEDDSYWDPNDEESMNSPCWQVKWQLRQLVRKMILRTSEETISTVQEKQQNISPLVRERGPQRVAAHITGTRGRSNTLSSPNSKNEKALGRKINSWESSRSGHSFLSNLHLRNGELVIHEKGFYYIYSQTYFRFQEEIKENTKNDKQMVQYIYKYTSYPDPILLMKSARNSCWSKDAEYGLYSIYQGGIFELKENDRIFVSVTNEHLIDMDHEASFFGAFLVG
In the case of B1, the “effect on Panc-1 cells (live cells)” value in the assay with Panc-1 cells is “virtually no effect”.
